Assays:
[1] = system: Subcutaneous Raji lymphoma xenograft; test: In vivo anti-tumor efficacy study; parameters: species or system nude mice; conditions: 10 mg/kg DOX i.v. days 0, 4, 8
Description: Lymphoma xenograft mouse models were established by subcutaneously injecting 1×10^7 Raji lymphoma cells in a 100 μL of mixture of PBS and Matrigel (1:1 v/v) at the right flank in female nude mice.

[2] = Toxicity monitoring in the therapeutic study (body weight, blood cell counts, serum chemistry, heart histology); assay type: in vivo, Raji tumor bearing mice
Description: Subcutaneous Raji lymphoma xenograft mouse model was used to evaluate the therapeutic efficacy of different formulations of DOX. When tumor volume reached 150-300 mm^3, mice were intravenously administrated with PBS, DOX.HCl, Doxil®, or DOX-PEG^5k-CA4^αRh4^ε at the dose of 10 mg/kg DOX equivalent (MTD of free DOX) (n=5-8). The treatment was given every four day on days 0, 4 and 8 for total three doses. Tumor sizes were measured with a digital caliper twice per week. Tumor volume was calculated by the formula (L×W^2)/2, where L is the longest, and W is the shortest in tumor diameters (mm). To compare between groups, relative tumor volume (RTV) was calculated at each measurement time point (where RTV equals the tumor volume at given time point divided by the tumor volume prior to initial treatment). For humane reasons, animals were sacrificed when the implanted tumor volume reached 2000 mm^3, which was considered as the end point of survival data. At day 7 after the last dosage, blood samples were obtained from all the mice for the measurement of blood cell counts, hepatic or renal function tests (ALT, AST, and BUN), and serum enzyme markers of cardiotoxicity including creatine kinase (CK) and lactate dehydrogenase (LDH). One mouse from each group was also sacrificed, and its heart was submitted for histopathology evaluation.

[3] = Maximum tolerated dose (MTD) study; conditions: mice, intravenous
[4] = day 7 after last dosage, free DOX vs untreated mice, nanoformulations vs free DOX (P<0.05)

**Q.** For COc1cccc2c1C(=O)c1c(O)c3c(c(O)c1C2=O)C[C@@](O)(C(=O)CO)C[C@@H]3O[C@H]1C[C@H](N)[C@H](O)[C@H](C)O1.Cl [free DOX, Doxorubicin hydrochloride], which median survival time [1] is on record?
**A.** 32 days

**Q.** And the “median RTV (relative tumor volume)” value ([1]; by day 28)?
**A.** 9.9

**Q.** And the body weight loss ([2]; 10 mg/kg DOX i.v. days 0, 4, 8)?
**A.** significantly higher

**Q.** And the “serum level of CK” value [2, 4]?
**A.** significantly increased

**Q.** What about the “serum level of LDH” value [2, 4] of the same molecule?
**A.** significantly increased

**Q.** And the WBC count ([2]; day 7 after the last injection, compared to PBS control)?
**A.** significantly decreased

**Q.** And the death ([2]; on day 16)?
**A.** one death

**Q.** And the MTD [3]?
**A.** 10 mg/kg

Source: patent US10406233B2, “Telodendrimers with enhanced drug delivery” (priority 2011, dated 2019)
